Legend:
[1] = Measurement of absorbance and fluorescence of synthesized compound in ethanol; assay type: physicochemical; conditions: 10 μM in ethanol; for λem: Maximum emission wavelength / λex: Maximum excitation wavelength: average of three measurements; for Stokes shift: difference between excitation and emission
Description: In order to investigate the optical properties of the newly synthesized compound in the present invention, the absorbance was measured using a V-730 UV-visible spectrophotometer manufactured by JASCO, and fluorescence was measured using a FlexStation 3 multi-mode microplate reader manufactured by Molecular Devices. Absorbance and fluorescence were measured three times at a concentration of 10 μM in ethanol, and the average thereof is shown in Table 1 below. At this time, T807 (AV-1451) as a Tau positron-emission-tomography (PET) tracer and Thioflavin S, which are commercially available to detect tau production in vivo, were used as a control group.

[2] = target: T1, tau aggregates (Tau-K18 protein) (Homo sapiens, UniProt P10636); experiment: In vitro binding assay (fluorescence labeling ability) to tau aggregates; conditions: for SIaβ: selectivity index = fluorescence intensity of probe bound to Tau aggregate / bound to Aβ aggregate / SItaumono: selectivity index, tau aggregate versus tau monomer / FItau: fold increase = fluorescence intensity of probe bound to tau aggregate / probe (free): compound 10 μM; for FItau: fold increase = fluorescence intensity of probe bound to tau aggregate / probe (free): PBS, 30 min incubation
T1 construct: aggregation of Tau-K18 protein (0.5 mg/ml in PBS) purified and isolated from E. coli; made in house; host or cells: E. coli
T1 sequence (P10636 561-685 limits assumed): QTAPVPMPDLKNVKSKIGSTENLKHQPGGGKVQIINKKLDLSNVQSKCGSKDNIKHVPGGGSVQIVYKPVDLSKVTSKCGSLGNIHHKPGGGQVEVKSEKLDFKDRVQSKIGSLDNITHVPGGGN
Description: (§1) Experimental Example 2-1: Tau and amyloid beta aggregation induction For amyloid aggregation induction, the synthesized Abeta40 (Amyloid Beta 40) peptide was dissolved in PBS at a concentration of 0.5 mg/ml to induce aggregation for 7 days at 37° C. and 200 rpm with shaking. To induce aggregation of tau proteins, aggregation of Tau-K18 protein (0.5 mg/ml in PBS) purified and isolated from E. coli with heparin (0.1 mg/ml) and DTT (100 μM) was induced at 37° C. and 200 rpm for 7 days under shaking conditions. […] At this time, thioflavin S (Th S), which is known to bind to beta-sheet structures such as tau and amyloid aggregates, was used as a control group (Ex: 430 nm, Em: 480-610 nm). Specifically, in order to determine the labeling ability of newly synthesized compounds to tau aggregate proteins, a 25 μl dilution of a 10 μM labeling substance in PBS and 25 id of a 0.125 mg/ml tau or amyloid pre-aggregate or aggregate diluted in PBS were each incubated for 30 minutes, and then a fluorescence spectrum reaction was measured using a spectrophotometer. Selectivity analysis for tau aggregates and amyloid beta aggregates of the novel synthetic compounds of the present invention was performed as described above, and the resulting in vitro fluorescence changes are summarized in Table 2 and FIG. 1 below.

[3] = target: T2, amyloid beta aggregates (Abeta40) (Homo sapiens, UniProt P05067); experiment: In vitro binding assay (fluorescence labeling ability) to amyloid beta aggregates; conditions: compound 10 μM, PBS, 30 min incubation
T2 construct: the synthesized Abeta40 (Amyloid Beta 40) peptide was dissolved in PBS; host or cells: synthetic peptide
T2 sequence (P05067 672-711 limits assumed): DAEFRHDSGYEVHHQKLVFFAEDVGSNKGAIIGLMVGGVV
Description: as §1

[4] = target: bovine serum albumin (BSA) (Bos taurus, UniProt P02769); experiment: Measurement of non-specific binding using BSA; conditions: compound 10 μM, 0.25 mg/ml BSA, 30 min incubation
Sequence of bovine serum albumin (BSA) (P02769 25-607): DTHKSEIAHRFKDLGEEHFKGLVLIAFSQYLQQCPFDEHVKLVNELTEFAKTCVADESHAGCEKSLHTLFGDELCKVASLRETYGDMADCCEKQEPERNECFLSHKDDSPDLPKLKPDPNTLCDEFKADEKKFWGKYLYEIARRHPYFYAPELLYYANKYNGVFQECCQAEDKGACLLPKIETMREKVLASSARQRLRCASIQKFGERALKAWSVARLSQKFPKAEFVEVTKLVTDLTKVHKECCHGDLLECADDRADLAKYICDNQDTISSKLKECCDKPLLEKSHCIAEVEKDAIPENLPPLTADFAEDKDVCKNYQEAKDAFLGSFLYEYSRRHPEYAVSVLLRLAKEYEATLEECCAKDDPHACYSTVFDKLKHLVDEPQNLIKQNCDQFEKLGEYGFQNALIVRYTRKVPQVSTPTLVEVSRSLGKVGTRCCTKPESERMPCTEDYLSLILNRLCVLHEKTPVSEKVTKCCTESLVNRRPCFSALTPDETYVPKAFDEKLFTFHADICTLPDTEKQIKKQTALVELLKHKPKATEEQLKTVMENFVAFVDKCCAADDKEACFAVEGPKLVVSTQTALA
Description: In order to exclude non-specific binding of the compound to serum, reactivity between the compound and bovine serum albumin (BSA) was further tested. 25 μl of a 10 μM compound was incubated along with 25 μl of 0.25 mg/ml BSA for 30 minutes, and then the fluorescence spectrum reaction was measured using a spectrophotometer. The BSA response was conducted to identify non-selective binding to other proteins in the blood when applied to patients as an imaging agent.

| Structure (SMILES) | λem: Maximum emission wavelength [1] [nm] | λex: Maximum excitation wavelength [1] [nm] | Stokes shift [1] [nm] | SIaβ: selectivity index = fluorescence intensity of probe bound to Tau aggregate / bound to Aβ aggregate [2] | SItaumono: selectivity index, tau aggregate versus tau monomer [2] | FItau: fold increase = fluorescence intensity of probe bound to tau aggregate / probe (free) [2] | FIAβ: fold increase = fluorescence intensity of probe bound to Aβ aggregate / probe (free) [3] | FIBSA: fold increase = fluorescence intensity of probe bound to BSA / probe (free) [4] | selectivity for tau aggregates over amyloid aggregates ([2]; in vitro screening as fluorescent probes) [times] |
| --- | --- | --- | --- | --- | --- | --- | --- | --- | --- |
| CNc1ccc(/C=C/C=C/c2ccc3cc(OC)ccc3n2)cc1 [Compound 15b, 4-((1E,3E)-4-(6-methoxyquinolin-2-yl)buta-1,3-dien-1-yl)-N-methylanaline] | 602 | 400 | 202 | 2.0 | 3.6 | 0.63 | 0.32 | 0.26 |  |
| Nc1ccc(C(=O)/C=C/c2ccc3cc(O)ccc3n2)cc1 [Compound 13c, (E)-1-(4-aminophenyl)-3-(6-hydroxyquinolin-2-yl)prop-2-en-1-one] | 570 | 378 | 192 | 2.8 | 3.2 | 4.63 | 1.67 | 1.72 |  |
| COc1ccc2nc(/C=C/C=C/c3cccc(Cl)c3)ccc2c1 [Compound 15f, 6-methoxy-2-((1E,3E)-4-(3-chlorophenyl)buta-1,3-dien-1-yl)quinolone] | 415 | 360 | 55 | 1.2 | 4.4 | 3.91 | 3.27 | 1.75 |  |
| COc1ccc2nc(/C=C/C(=O)c3ccc(C)cc3)ccc2c1 [Compound 13d, (E)-1-(4-tolyl)-3-(6-methoxyquinolin-2-yl)prop-2-en-1-one] | 454 | 314 | 140 | 3.2 | 4.8 | 6.05 | 1.88 | 1.57 |  |

Continued, values first:

| λem: Maximum emission wavelength [1] [nm] | λex: Maximum excitation wavelength [1] [nm] | Stokes shift [1] [nm] | SIaβ: selectivity index = fluorescence intensity of probe bound to Tau aggregate / bound to Aβ aggregate [2] | SItaumono: selectivity index, tau aggregate versus tau monomer [2] | FItau: fold increase = fluorescence intensity of probe bound to tau aggregate / probe (free) [2] | FIAβ: fold increase = fluorescence intensity of probe bound to Aβ aggregate / probe (free) [3] | FIBSA: fold increase = fluorescence intensity of probe bound to BSA / probe (free) [4] | selectivity for tau aggregates over amyloid aggregates ([2]; in vitro screening as fluorescent probes) [times] | Structure (SMILES) |
| --- | --- | --- | --- | --- | --- | --- | --- | --- | --- |
| 637 | 425 | 212 | 3.5 | 3.9 | 3.82 | 1.10 | 1.26 | 3.5 | COc1ccc2nc(C(=O)/C=C/C=C/c3ccc(N(C)C)nc3)ccc2c1 [Compound 16d, (2E,4E)-5-(6-(dimethylamino)pyridin-3-yl)-1-(6-methoxyquinolin-2-yl)penta-2,4-dien-1-one] |
| 658 | 436 | 222 | 2.5 | 3.0 | 3.90 | 1.55 | 1.59 |  | COc1ccc2nc(C(=O)/C=C/C=C/c3ccc(N(C)CCO)cc3)ccc2c1 [Compound 16e] |

From US12050224B2, “Compounds useful as near-infrared fluorescent probes selectively binding to tau aggregates and method of preparing the same” (KOREA INSTITUTE OF SCIENCE AND TECHNOLOGY, priority 2020, dated 2024)
